Here are results for one compound from US10836768B2, “N-acyl-(3-substituted)-(8-substituted)-5,6-dihydro-[1,2,4]triazolo[4,3-a]pyrazines as selective NK-3 receptor antagonists” (OGEDA SA, priority 2013, dated 2020).

Series [1] in a line: Determination of plasma protein binding (equilibrium dialysis). The class given is in vitro ADME. The settings on record: bound drug fraction to plasma protein; 4 hours at 37° C. From the text: Determination of Plasma Protein Binding
The pharmacokinetic and pharmacodynamic properties of chemicals/drugs are largely a function of the reversible binding of chemicals to plasma or serum proteins. […] Consequently, the extent of the plasma protein binding (PPB) of a compound influences its action as well as its distribution and elimination.
The determination of plasma protein binding (PPB) of a compound is enabled by equilibrium dialysis, an accepted and standard method for reliable estimation of the non-bound drug fraction in plasma. RED (Rapid Equilibrium Dialysis) device insert is made of two side-by-side chambers separated by an O-ring-sealed vertical cylinder of dialysis membrane (MWCO ˜8,000). […] After 4 hours incubation at 37° C. under shaking, an aliquot is removed from each chamber and analyzed by a LC-MS/MS procedure enables the determination of both free and bound drug.
The “free fraction” may be calculated as 100%−% rPPB (i.e. the complementary percentage of that disclosed in Table 4, corresponding to the drug concentration that is unbound and therefore available to engage biological target and elicit pharmacological activity).

A further series relates to plasma estradiol levels. Description: Estradiol circulating level in female rats. The series is classed as in vivo, rat. Conditions: adult female rats, 10 mg/kg b.i.d. oral, two consecutive estrous cycles (FIG. 3). On the procedure: Effect of compounds of the invention on Estradiol circulating level in female rats The aim of this study was to evaluate the effect of compounds of the invention on plasma estradiol levels following oral administration at 10 mg/kg (b.i.d.) for a period of 10 days in female rats.
Briefly the experimental methods used for this study were as follows: Two groups of adult, female rats (Sprague-Dawley, −320 g) were treated in-phase with their individual estrous cycles. Thus, treatment was started in the proestrus phase (coincident with peak estradiol levels, as shown on Day 1 in FIG. 3) and rats were dosed twice daily (˜9 h30 and 17 h30) by oral administration either with a compound of the invention at 10 mg/kg or with the vehicle for the control group. Compounds of the invention were prepared in a dose formulation of pyrogen-free water with 0.5% methylcellulose. Estradiol levels were determined for all groups by ELISA performed on plasma samples derived from blood collections taken at 30 minutes before the daily, 9 h30 test article administration on all days presented in FIG. 3.

The test system of series [2] is women diagnosed with PCOS. Kind of series: Phase 2a clinical trial, PolyCystic Ovary Syndrome (PCOS). Conditions: 180 mg QD. The series is classed as in vivo, human. How it is done:
Clinical Evaluation of Compound No 5 for the Treatment of PolyCystic Ovary Syndrome (PCOS)
The study objectives are to evaluate the effect of compound no 5 on the serum levels of Total Testosterone (TT), Luteinizing Hormone (LH), Follicle Stimulating Hormone (FSH) and LH:FSH ratio after 12 weeks of treatment.
The Phase 2a clinical trial was conducted in 48 patients, divided over 2 treatment groups of 24 patients each. One group received placebo while the other group received 180 mg of compound no 5 once daily (QD) for a period of 12 weeks. The Phase 2a trial was double blind and randomized. […] The study was conducted on an ambulatory basis where patients were asked to visit the clinical site on the first day of dosing and at weeks 3, 6, 9 and 12 during the treatment period with a follow-up visit 2-3 weeks after conclusion of dosing.
Blood draws for LH, FSH and TT were taken every visit between 2 and 8 hours after drug intake (baseline and week 3-6-12). At week 9 the blood samples were taken in the morning before drug intake (i.e. at trough PK concentrations for compound no 5). These blood draws were the basis for assessing the primary (TT) and secondary (LH, FSH, LH:FSH ratio) endpoints. The primary endpoint of Total Testosterone was measured according to GLP using an LC-MS/MS method.
PCOS is typically characterized by excessive ovarian androgen production, failure of ovulation, and slightly enlarged ovaries with numerous peripheral small follicles that appear as cysts. The disorder is commonly accompanied by infertility. Typically, the clinical features of PCOS are associated with hypersecretion of LH and androgens (TT) but with normal serum concentrations of FSH hormone. Laboratory examinations reveal elevated TT levels in about 50% of the patients, accompanied by an elevated LH:FSH ratio (>2) due to the imbalanced secretion of both hormones (a ratio of 1 is considered normal).

The test system of series [3] is circulating levels of luteinizing hormone (LH). Description: Castrated male rat model, circulating LH (oral dosing). The series is classed as in vivo. The settings on record: castrated male SD rats, single oral dose less than or equal to 30 mg/kg, p<0.05. How it is done: In vivo assay to assess compound activity in rat (oral dosing)
Castrated male rat model to assess the effect of compound of invention on circulating levels of luteinizing hormone (LH)
The effect of compounds of the invention to inhibit luteinizing hormone (LH) secretion is determined by the following biological studies.
In humans and rodents, castration is well-precedented to permit heightened, persistent GnRH signaling and consequent elevation of circulating LH. Thus, a castrated rat model is used to provide a broad index for measurement of LH inhibition as a marker of test compound inhibition of the GnRH signaling pathway.
Castrated adult male Sprague-Dawley (SD) rats (150-175 g,) were purchased from Janvier (St Berthevin, France). All animals were housed 2 per cage in a temperature-controlled room (22±2° C.) and 50±5% relative humidity with a 12 hour/12 hour light/dark cycles (lights off at […]). The animals were allowed 3 weeks of postoperative recovery prior to study. Animals were handled on a daily basis. Standard diet and tap water were provided ad libitum. Animal cage litters were changed once a week. On the study day, animals were acclimated to the procedure room for a period of one hour prior to the initiation of the experiment.
Compounds of the invention were formulated in 0.5% methyl cellulose.
After basal sampling (TO) a single dose of compounds of the invention or vehicle was administrated orally to rats. Blood samples were then collected at several time points post dosing (45, 90, 150, 300 and 420 minutes). Blood samples were obtained via tail vein bleed, drawn into EDTA-containing tubes and centrifuged immediately. Plasma samples were collected and stored in a −80° C. freezer until assayed. Serum LH levels were determined using radioimmunoassay kit from RIAZEN—Rat LH, Zentech (Liege, Belgium). Baseline was defined as the initial basal blood sample.

The next series deals with ovariectomized ewes. Description: In vivo assay in OVX ewes, thermoregulation. Details: species or system ewe. The settings on record: 1 mg/kg i.v. From the text:
In Vivo Assay in OVX Ewes-Activity in Thermoregulation Experimental Methods: Evaluation of Thermoregulation in OVX Ewe […] After 4 months recovery, animals were acclimatised to housing in single pens for a period of 7 days with ad libitum access to water and […] lucerne hay. One day prior to experimentation, the animals received a jugular vein cannula ([…], Tuta Laboratories, Lane Cove, Australia). The cannulo were kept patent with heparinised saline. […] Animals were fed at 12 h00. Rectal temperatures were monitored with a probe at hourly intervals throughout the experiment, starting at 7 h40 and concluding at 15 h40.

In another series the test system is postmenopausal women. Kind of series: Phase 2a clinical trial, menopausal hot flashes. The class given is in vivo, human. The settings on record: 90 mg BID. How it is done: Clinical Evaluation of Compound No 5 for the Treatment of Menopausal Hot Flashes The study objective is to evaluate the effect of compound no 5 on the severity and frequency of hot flashes in postmenopausal women. The Phase 2a clinical trial was conducted in 80 patients, divided over 2 treatment groups of 40 patients each. […] The Phase 2a trial was double blind and randomized. This Phase 2a trial was conducted on healthy menopausal women (40-65 y) experiencing at least 49 moderate or severe hot flashes or night sweats over a period of 7 consecutive days in the screening period (maximum of 4 weeks). […] The weekly number of hot flashes was calculated in two ways: cumulatively for all severity grades, and cumulatively but leaving out the number of mild hot flashes. Hot Flash Frequencies were calculated for weeks 4 and 12. […] This score is an accepted method to assess the overall severity of the hot flash burden and is calculated weekly. […] The Hot Flash Score (based on severity and frequency) is calculated as follows: day-score=(number of mild hot flashes/day×1)+(number of moderate hot flashes/day×2)+(number of severe hot flashes/day×3) • The weekly hot flash score is calculated: […] […]

Turning to `Cc1nsc(-c2nnc3n2CCN(C(=O)c2ccc(F)cc2)[C@@H]3C)n1` [Compound 5, (R)-(4-fluorophenyl)(8-methyl-3-(3-methyl-1,2,4-thiadiazol-5-yl)-5,6-dihydro-[1,2,4]triazolo[4,3-a]pyrazin-7(8H)-yl)methanone], the “Exposure (% rPPB)” value in series [1] was 22%. Further, in the series on plasma estradiol levels, the estradiol levels result was “significantly decreased estradiol levels”. Moreover, in series [2], the FSH secretion entry is on record as “preserved”, the LH entry was “significant decrease”, the “LH:FSH vs placebo” value is “significantly reduced” and the TT vs placebo result is “significantly reduced”. Besides, the “circulating LH levels” value in series [3] is reported as “significantly suppressed circulating LH levels”. In addition, the “pyrogenic response to feeding” value in the series on ovariectomized ewes is given as “not observed”. In the series on postmenopausal women, the “Frequency of hot flashes vs placebo” value is reported as “significantly reduced” and the “Score of hot flashes vs placebo” value was “significantly reduced”.
